Each structure is given as a SMILES string. Where two headings read alike, the source gives them in different places.

Results on 23 compounds are retold here after patent US9273040B2 (Merck Sharp & Dohme Corp., priority 2011, dated 2016).

Test [1] concerns the target T1, human Nav1.5 channels stably expressed in HEK 293 cells (Homo sapiens, UniProt Q14524).
T1 construct: expressed in transfected cells
Nature of the test: PatchXpress 7000 automated patch-clamp, sodium current. Conditions: selectivity over Nav1.5. Format: cell-based. The essentials: (§1)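 IC50 values came from Hill-equation fits of rundown-corrected inhibition. PatchXpress recordings at 22° C held cells 20 mV negative to V0.5 inact and applied 10 Hz trains of 30 ms steps to −20 mV (Nav1.7) or an 8000 ms prepulse 7 mV positive to V0.5 inact. […]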

In test [2] the target is T2, human Nav1.7 channels stably expressed in HEK 293 cells (Homo sapiens, UniProt Q15858).
T2 construct: expressed in transfected cells
T2 sequence (Q15858 whole entry): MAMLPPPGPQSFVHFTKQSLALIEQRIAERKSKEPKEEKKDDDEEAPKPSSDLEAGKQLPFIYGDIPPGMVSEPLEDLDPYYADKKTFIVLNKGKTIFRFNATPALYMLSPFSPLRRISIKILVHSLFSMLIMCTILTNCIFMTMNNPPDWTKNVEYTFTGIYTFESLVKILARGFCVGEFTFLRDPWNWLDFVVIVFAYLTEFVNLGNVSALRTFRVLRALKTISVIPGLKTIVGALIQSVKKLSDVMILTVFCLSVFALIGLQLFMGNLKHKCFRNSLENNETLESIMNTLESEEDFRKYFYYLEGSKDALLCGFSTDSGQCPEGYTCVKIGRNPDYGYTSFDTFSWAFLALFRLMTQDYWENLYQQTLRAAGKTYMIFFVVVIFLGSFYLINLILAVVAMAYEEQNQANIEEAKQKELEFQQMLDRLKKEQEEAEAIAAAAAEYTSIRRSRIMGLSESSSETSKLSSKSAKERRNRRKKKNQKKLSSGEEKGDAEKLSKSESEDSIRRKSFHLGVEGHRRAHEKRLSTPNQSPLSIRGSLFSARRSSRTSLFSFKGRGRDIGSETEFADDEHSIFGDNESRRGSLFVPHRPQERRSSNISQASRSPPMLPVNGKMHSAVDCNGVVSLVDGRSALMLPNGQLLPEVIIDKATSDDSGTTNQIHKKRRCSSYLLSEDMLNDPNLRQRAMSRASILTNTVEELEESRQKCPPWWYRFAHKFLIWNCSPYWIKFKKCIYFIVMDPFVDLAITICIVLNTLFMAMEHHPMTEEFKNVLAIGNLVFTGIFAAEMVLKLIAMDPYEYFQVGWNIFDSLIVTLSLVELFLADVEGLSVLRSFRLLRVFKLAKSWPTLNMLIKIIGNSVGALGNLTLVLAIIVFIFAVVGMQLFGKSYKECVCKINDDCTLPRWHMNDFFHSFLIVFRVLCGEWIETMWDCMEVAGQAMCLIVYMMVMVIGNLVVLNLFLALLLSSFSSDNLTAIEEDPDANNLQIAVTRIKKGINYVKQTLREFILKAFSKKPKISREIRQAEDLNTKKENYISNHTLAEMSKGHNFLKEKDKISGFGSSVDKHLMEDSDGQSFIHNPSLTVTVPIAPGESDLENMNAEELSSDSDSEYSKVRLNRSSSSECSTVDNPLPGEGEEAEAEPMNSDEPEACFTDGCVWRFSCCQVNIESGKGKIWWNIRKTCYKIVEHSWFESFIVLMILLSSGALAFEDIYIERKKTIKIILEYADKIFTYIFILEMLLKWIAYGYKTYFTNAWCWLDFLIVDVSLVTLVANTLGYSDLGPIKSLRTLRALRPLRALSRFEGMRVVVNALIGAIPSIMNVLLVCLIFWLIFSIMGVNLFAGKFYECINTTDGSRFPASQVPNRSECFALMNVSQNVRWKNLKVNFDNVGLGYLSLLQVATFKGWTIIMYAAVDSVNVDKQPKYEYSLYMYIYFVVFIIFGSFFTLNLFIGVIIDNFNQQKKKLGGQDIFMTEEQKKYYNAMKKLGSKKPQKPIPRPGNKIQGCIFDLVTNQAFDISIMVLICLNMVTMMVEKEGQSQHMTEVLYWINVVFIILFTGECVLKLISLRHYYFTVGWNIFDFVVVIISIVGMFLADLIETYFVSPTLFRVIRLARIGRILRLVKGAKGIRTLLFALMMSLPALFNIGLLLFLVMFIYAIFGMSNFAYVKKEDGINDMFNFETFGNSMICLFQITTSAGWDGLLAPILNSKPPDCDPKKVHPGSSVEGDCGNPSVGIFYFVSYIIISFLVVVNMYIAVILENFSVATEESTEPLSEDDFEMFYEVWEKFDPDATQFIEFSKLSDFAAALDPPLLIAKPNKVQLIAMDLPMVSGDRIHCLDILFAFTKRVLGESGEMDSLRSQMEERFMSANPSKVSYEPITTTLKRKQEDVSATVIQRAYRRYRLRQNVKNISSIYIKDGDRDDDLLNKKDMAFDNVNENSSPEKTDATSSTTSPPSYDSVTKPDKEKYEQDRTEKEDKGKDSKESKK
The test is described as above. Format: cell-based. The following applies: 22° C. The essentials: as §1

[3] abbreviates: read-out: potency for the Nav 1.7 sodium ion channel (as measured by PatchXpress).

T1 sequence (Q14524 whole entry): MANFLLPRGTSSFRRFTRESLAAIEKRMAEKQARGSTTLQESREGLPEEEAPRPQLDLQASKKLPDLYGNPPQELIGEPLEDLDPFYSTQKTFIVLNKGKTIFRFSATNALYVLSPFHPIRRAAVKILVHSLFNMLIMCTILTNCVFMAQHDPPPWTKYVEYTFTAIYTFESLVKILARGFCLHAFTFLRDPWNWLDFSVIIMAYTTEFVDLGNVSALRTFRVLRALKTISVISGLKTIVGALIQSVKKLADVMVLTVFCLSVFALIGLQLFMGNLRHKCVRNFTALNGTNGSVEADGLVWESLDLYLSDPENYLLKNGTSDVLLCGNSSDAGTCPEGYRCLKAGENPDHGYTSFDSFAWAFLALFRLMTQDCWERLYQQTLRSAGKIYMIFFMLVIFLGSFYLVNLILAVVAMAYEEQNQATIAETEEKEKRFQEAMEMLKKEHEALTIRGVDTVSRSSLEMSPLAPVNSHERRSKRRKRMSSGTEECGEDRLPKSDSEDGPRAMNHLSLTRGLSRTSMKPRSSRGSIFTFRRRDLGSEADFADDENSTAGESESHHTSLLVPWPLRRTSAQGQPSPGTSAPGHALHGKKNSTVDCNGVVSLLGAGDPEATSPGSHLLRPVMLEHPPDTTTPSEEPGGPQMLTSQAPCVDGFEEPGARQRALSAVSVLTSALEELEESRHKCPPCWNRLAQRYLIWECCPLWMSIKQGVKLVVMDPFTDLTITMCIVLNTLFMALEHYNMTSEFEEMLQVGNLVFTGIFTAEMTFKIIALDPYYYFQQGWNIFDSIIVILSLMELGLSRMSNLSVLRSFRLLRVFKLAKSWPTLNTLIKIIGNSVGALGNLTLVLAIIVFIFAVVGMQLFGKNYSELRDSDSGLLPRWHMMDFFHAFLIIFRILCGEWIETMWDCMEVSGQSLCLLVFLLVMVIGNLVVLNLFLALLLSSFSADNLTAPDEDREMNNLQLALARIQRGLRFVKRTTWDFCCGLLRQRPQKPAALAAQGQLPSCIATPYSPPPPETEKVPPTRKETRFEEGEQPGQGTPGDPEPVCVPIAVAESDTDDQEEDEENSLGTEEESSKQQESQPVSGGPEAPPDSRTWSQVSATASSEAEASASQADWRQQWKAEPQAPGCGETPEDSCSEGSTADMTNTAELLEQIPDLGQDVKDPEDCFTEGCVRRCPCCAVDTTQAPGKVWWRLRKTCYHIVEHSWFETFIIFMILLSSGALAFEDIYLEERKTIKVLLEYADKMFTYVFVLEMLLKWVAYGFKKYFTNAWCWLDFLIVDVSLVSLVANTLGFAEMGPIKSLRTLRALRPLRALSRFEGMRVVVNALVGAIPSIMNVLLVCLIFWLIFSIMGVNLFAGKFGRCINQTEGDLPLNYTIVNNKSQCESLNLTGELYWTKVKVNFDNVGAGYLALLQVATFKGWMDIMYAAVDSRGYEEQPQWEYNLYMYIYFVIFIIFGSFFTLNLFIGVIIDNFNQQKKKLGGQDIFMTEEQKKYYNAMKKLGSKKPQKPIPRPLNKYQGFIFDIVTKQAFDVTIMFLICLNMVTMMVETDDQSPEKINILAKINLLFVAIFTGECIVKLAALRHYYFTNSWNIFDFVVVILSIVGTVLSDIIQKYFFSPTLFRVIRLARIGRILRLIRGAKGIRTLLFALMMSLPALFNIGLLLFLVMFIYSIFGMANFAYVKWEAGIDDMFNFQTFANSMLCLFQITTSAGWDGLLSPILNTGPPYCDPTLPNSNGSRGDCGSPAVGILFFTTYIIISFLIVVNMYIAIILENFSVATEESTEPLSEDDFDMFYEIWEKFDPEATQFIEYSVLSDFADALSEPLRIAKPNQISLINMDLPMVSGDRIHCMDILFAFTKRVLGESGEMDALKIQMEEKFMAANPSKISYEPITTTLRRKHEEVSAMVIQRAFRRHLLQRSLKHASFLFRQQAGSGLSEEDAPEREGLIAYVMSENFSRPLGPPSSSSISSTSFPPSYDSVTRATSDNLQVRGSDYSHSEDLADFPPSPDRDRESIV

`C[C@H](c1ccccc1C1=CCN(S(C)(=O)=O)CC1)n1c(=O)oc2cc(S(=O)(=O)Nc3ncns3)c(F)cc21` [Compound 36-3, 5-fluoro-3-[(1R)-1-{2-[1-(methylsulfonyl)-1,2,3,6-tetrahydropyridin-4-yl]phenyl}ethyl]-2-oxo-N-1,2,4-thiadiazol-5-yl-2,3-dihydro-1,3-benzoxazole-6-sulfonamide]: in test [1], the “ratio of Nav 1.5:Nav 1.7 potency, determined by PatchXpress measurement” value (“ratio of Nav 1.5:Nav 1.7 potency” below) turned out to be 88. The IC50 in test [2] (setting [3]) worked out at 255 nM.
Consider `O=c1oc2cc(S(=O)(=O)Nc3ncns3)c(F)cc2n1Cc1cccc2c1CC(N1CCC1)CC2` (racemic) [Compound 23-19, (+/−)-3-[(7-azetidin-1-yl-5,6,7,8-tetrahydronaphthalen-1-yl)methyl]-5-fluoro-2-oxo-N-1,2,4-thiadiazol-5-yl-2,3-dihydro-1,3-benzoxazole-6-sulfonamide], for which the “ratio of Nav 1.5:Nav 1.7 potency” value in test [1] was determined as 499. Besides, the IC50 in test [2] (setting [3]) worked out at 32 nM.
On the same counts, the results for `Cl.O=c1oc2cc(S(=O)(=O)Nc3nccs3)c(F)cc2n1Cc1cccc2c1CNCC2(F)F` [Compound 44-5, 3-((4,4-Difluoro-1,2,3,4-tetrahydroisoquinolin-8-yl)methyl)-5-fluoro-2-oxo-N-(thiazol-2-yl)-2,3-dihydrobenzo[d]oxazole-6-sulfonamide hydrochloride] are 151 and 181 nM.
On the same counts, the results for `O=c1oc2cc(S(=O)(=O)Nc3ncns3)c(F)cc2n1Cc1cccc2c1CC(NCC(F)(F)F)CC2` (racemic) [Compound 23-7, (+/−)-5-fluoro-2-oxo-N-1,2,4-thiadiazol-5-yl-3-({7-[(2,2,2-trifluoroethyl)amino]-5,6,7,8-tetrahydronaphthalen-1-yl}methyl)-2,3-dihydro-1,3-benzoxazole-6-sulfonamide] are 146 and 206 nM.
On the same counts, the results for `C[C@H](c1ccccc1C#CCN)n1c(=O)oc2cc(S(=O)(=O)Nc3ncns3)c(F)cc21` [Compound 17-20, 3-{(1R)-1-[2-(3-aminoprop-1-yn-1-yl)phenyl]ethyl}-5-fluoro-2-oxo-N-1,2,4-thiadiazol-5-yl-2,3-dihydro-1,3-benzoxazole-6-sulfonamide] are 2324 and 13 nM.
`O=c1oc2cc(S(=O)(=O)Nc3ncns3)c(F)cc2n1Cc1cccc2c1CC(NCC(F)F)CC2` (racemic) [Compound 23-13, (+/−)-3-({7-[(2,2-difluoroethyl)amino]-5,6,7,8-tetrahydronaphthalen-1-yl}methyl)-5-fluoro-2-oxo-N-1,2,4-thiadiazol-5-yl-2,3-dihydro-1,3-benzoxazole-6-sulfonamide]: in test [1], the “ratio of Nav 1.5:Nav 1.7 potency” value amounted to 121. The IC50 in test [2] (setting [3]) worked out at 84 nM.
On the same counts, the results for `O=c1oc2cc(S(=O)(=O)Nc3ncns3)c(F)cc2n1C1CCOc2ccc(F)cc21` (stereo not shown) [Compound 39-13, 5-fluoro-3-(6-fluoro-3,4-dihydro-2H-chromen-4-yl)-2-oxo-N-1,2,4-thiadiazol-5-yl-2,3-dihydro-1,3-benzoxazole-6-sulfonamide] are 295 and 112 nM.
As to `C[C@H](c1ccccc1C#CCN)n1c(=O)oc2cc(S(=O)(=O)Nc3ncns3)c(Cl)cc21` [Compound 34-8, 3-{(1R)-1-[2-(3-aminoprop-1-yn-1-yl)phenyl]ethyl}-5-chloro-2-oxo-N-1,2,4-thiadiazol-5-yl-2,3-dihydro-1,3-benzoxazole-6-sulfonamide], the “ratio of Nav 1.5:Nav 1.7 potency” value in test [1] turned out to be 40. Also, in test [2] (setting [3]), the IC50 is 40 nM.
On the same counts, the results for `CC(c1cccc2c1CN(S(C)(=O)=O)CC2)n1c(=O)oc2cc(S(=O)(=O)Nc3ncns3)c(Cl)cc21` (racemic) [Compound 36-2, (+/−)-5-chloro-3-{1-[2-(methylsulfonyl)-1,2,3,4-tetrahydroisoquinolin-8-yl]ethyl}-2-oxo-N-1,2,4-thiadiazol-5-yl-2,3-dihydro-1,3-benzoxazole-6-sulfonamide] are 13 and 334 nM.
On the same counts, the results for `C[C@H](c1cccc(-c2ccn(C)n2)c1)n1c(=O)oc2cc(S(=O)(=O)Nc3ncns3)c(F)cc21` [Compound 28-3, (R)-5-Fluoro-3-(1-(3-(1-methyl-1H-pyrazol-3-yl)phenyl)ethyl)-2-oxo-N-(1,2,4-thiadiazol-5-yl)-2,3-dihydrobenzo[d]oxazole-6-sulfonamide] are 86 and 306 nM.
Consider `C[C@H](c1ccccc1C#CCC(C)(C)N)n1c(=O)oc2cc(S(=O)(=O)Nc3ncns3)c(F)cc21` [Compound 17-15, 3-{(1R)-1-[2-(4-amino-4-methylpent-1-yn-1-yl)phenyl]ethyl}-5-fluoro-2-oxo-N-1,2,4-thiadiazol-5-yl-2,3-dihydro-1,3-benzoxazole-6-sulfonamide], for which, in test [1], the “ratio of Nav 1.5:Nav 1.7 potency” value was determined as 1566. The IC50 in test [2] (setting [3]) was found to be 32 nM.
For `C[C@H](c1ccccc1C1=CCNCC1)n1c(=O)oc2cc(S(=O)(=O)Nc3ncns3)c(F)cc21` [Compound 16-4, (R)-5-Fluoro-2-oxo-3-(1-(2-(1,2,3,6-tetrahydropyridin-4-yl)phenyl)ethyl)-N-(1,2,4-thiadiazol-5-yl)-2,3-dihydrobenzo[d]oxazole-6-sulfonamide], the “ratio of Nav 1.5:Nav 1.7 potency” value in test [1] was found to be 296. In test [2] (potency for the Nav 1.7 sodium ion channel (as measured by PatchXpress)), this compound had an IC50 of 28 nM.
In the case of `O=c1oc2cc(S(=O)(=O)Nc3ncns3)c(F)cc2n1Cc1cccc2cncn12` [Compound 11-12, 5-fluoro-3-(imidazo[1,5-a]pyridin-5-ylmethyl)-2-oxo-N-1,2,4-thiadiazol-5-yl-2,3-dihydro-1,3-benzoxazole-6-sulfonamide], in test [1], the “ratio of Nav 1.5:Nav 1.7 potency” value came to 368. The IC50 in test [2] (setting [3]) stood at 81 nM.
On the same counts, the results for `Cc1cc2c(cc1S(=O)(=O)Nc1ncns1)oc(=O)n2[C@H](C)c1ccccc1` [Compound 38-3] are 37 and 43 nM.
On the same counts, the results for `CC(c1cccc2c1CC(N1CC(F)(F)C1)CC2)n1c(=O)oc2cc(S(=O)(=O)Nc3ncns3)c(F)cc21` (racemic) [Compound 23-12, (+/−)-3-{1-[7-(3,3-difluoroazetidin-1-yl)-5,6,7,8-tetrahydronaphthalen-1-yl]ethyl}-5-fluoro-2-oxo-N-1,2,4-thiadiazol-5-yl-2,3-dihydro-1,3-benzoxazole-6-sulfonamide] are 46 and 109 nM.
In the case of `CCc1cc2c(cc1S(=O)(=O)Nc1ncns1)oc(=O)n2[C@H](C)c1ccccc1` [Compound 38-2, 5-ethyl-2-oxo-3-[(1R)-1-phenylethyl]-N-1,2,4-thiadiazol-5-yl-2,3-dihydro-1,3-benzoxazole-6-sulfonamide], the “ratio of Nav 1.5:Nav 1.7 potency” value in test [1] is 17. Moreover, the IC50 in test [2] (setting [3]) was 94 nM.
`C[C@@H](c1cccc2ccncc12)n1c(=O)oc2cc(S(=O)(=O)Nc3ncns3)ccc21` [Compound 14-9, 3-[(1S)-1-isoquinolin-8-ylethyl]-2-oxo-N-1,2,4-thiadiazol-5-yl-2,3-dihydro-1,3-benzoxazole-6-sulfonamide]: the “ratio of Nav 1.5:Nav 1.7 potency” value in test [1] came out at 37. Besides, in test [2] (setting [3]), the IC50 came to 808 nM.
On to `O=c1oc2cc(S(=O)(=O)Nc3ncns3)c(F)cc2n1C1CC2(COC2)Oc2ccccc21` (stereo not shown) [Compound 39-4, 3-(3,4-dihydrospiro[chromene-2,3′-oxetan]-4-yl)-5-fluoro-2-oxo-N-1,2,4-thiadiazol-5-yl-2,3-dihydro-1,3-benzoxazole-6-sulfonamide], for which the “ratio of Nav 1.5:Nav 1.7 potency” value in test [1] came out at 58. Further, the IC50 in test [2] (setting [3]) was found to be 312 nM.
As for `C[C@H](c1ccccc1C#CCCO)n1c(=O)oc2cc(S(=O)(=O)Nc3ncns3)c(F)cc21` [Compound 17-4, 5-fluoro-3-{(1R)-1-[2-(4-hydroxybut-1-yn-1-yl)phenyl]ethyl}-2-oxo-N-1,2,4-thiadiazol-5-yl-2,3-dihydro-1,3-benzoxazole-6-sulfonamide], in test [1], the “ratio of Nav 1.5:Nav 1.7 potency” value is reported as 360. The IC50 in test [2] (setting [3]) was 147 nM.
`C[C@H](O)C#Cc1ccccc1[C@@H](C)n1c(=O)oc2cc(S(=O)(=O)Nc3ncns3)c(F)cc21` [Compound 17-12, 5-fluoro-3-[(1R)-1-{2-[(3S)-3-hydroxybut-1-yn-1-yl]phenyl}ethyl]-2-oxo-N-1,2,4-thiadiazol-5-yl-2,3-dihydro-1,3-benzoxazole-6-sulfonamide]: the “ratio of Nav 1.5:Nav 1.7 potency” value in test [1] was determined as 262. For the same compound, the IC50 in test [2] (setting [3]) was 37 nM.
With `C[C@H](c1ccccc1C1(F)CNC1)n1c(=O)oc2cc(S(=O)(=O)Nc3nccs3)c(F)cc21` [Compound 43-23, 5-fluoro-3-{(1R)-1-[2-(3-fluoroazetidin-3-yl)phenyl]ethyl}-2-oxo-N-1,3-thiazol-2-yl-2,3-dihydro-1,3-benzoxazole-6-sulfonamide], the “ratio of Nav 1.5:Nav 1.7 potency” value in test [1] was 5541. Further, the IC50 in test [2] (setting [3]) stood at 4 nM.
On to `C[C@H](c1ccccc1)n1c(=O)oc2cc(S(=O)(=O)Nc3nccs3)c(F)cc21` [Compound 43-2, (R)-5-fluoro-2-oxo-3-(1-phenylethyl)-N-(thiazol-2-yl)-2,3-dihydrobenzo[d]oxazole-6-sulfonamide], for which the “ratio of Nav 1.5:Nav 1.7 potency” value in test [1] turned out to be 88. The IC50 in test [2] (setting [3]) was 68 nM.
On the same counts, the results for `C[C@H](c1cccc2c1CNCC2)n1c(=O)oc2cc(S(=O)(=O)Nc3nccs3)ccc21` [Compound 42-1, (R)-2-oxo-3-(1-(1,2,3,4-tetrahydroisoquinolin-8-yl)ethyl)-N-(thiazol-2-yl)-2,3-dihydrobenzo[d]oxazole-6-sulfonamide] are 1017 and 30 nM.
